Holding throughout (type): cell-based, mouse
Test [1] relates to AP-1. Description: CAT assay with stromelysin promoter reporter P750TRCAT (AP-1 dependent) in JB6 P+ Cl 41 cells. Particulars: for inhibition of TPA-induced CAT activity: 8 hours. An excerpt: The plasmid constructs used in the following examples were as follows: P750TRCAT is a CAT reporter construct containing 750 bp of the rat stromelysin promoter driving the heterogolous gene chloramphenicol acetyl-transferase (CAT). This construct contains an AP-1 binding sequence at position −70 (Matrisian, L. M. et al. (1991) Am. J. Medic. Sci., 302: 157-162, Kerr, L. D. et al. (1988) Science., 242: 1424-1427, McDonnell, S. E. et al. (1990) Mol. Cell. Biol. 105 4284-4293). The mTRE-CAT reporter is a site-directed mutant with 2 point mutations in the AP-1 site (Matrisian, L. M. et al. (1991) Am. J. Medic. Sci., 302: 157-162) and the mPEA3-CAT reporter is a site-directed mutant in which point mutations in each of the PEA3 sites at position −208 to −200 and −191 to −199 of the stromelysin promoter were introduced using a protocol provided with the site-directed mutagenesis kit of Amersham Corp. (Arlington Heights, Ill.) and an oligonucleotide having SEQ ID NO.:1 GCAAGAAGCATTTCTTGG.
In brief, JB6 Cl 41 (P^+) cells transfected for 4-5 hours using a standard calcium phosphate transfection procedure (Sambrook, J. et al. (1989) “Molecular Cloning, A Laboratory Manual” Cold Spring Harbor Laboratory Press, Cold Spring Harbor, N.Y.) with 10 μg of one of three CAT reporter plasmid DNAs, P750TRCAT, mTRE-CAT or mPEA3-CAT and 10 μg of sheared genomic DNA isolated from Cl 41 cells were then changed to medium containing 2% fetal calf serum and twenty-four to forty-two hours later, were treated with either 0.1% of DMSO, 10 ng/ml of TPA or 10 ng/ml EGF for eight hours prior to preparation of total cell extracts. CAT enzyme activity was assayed using a diffusion-based CAT assay according to the protocol provided by the manufacturers (New England Nuclear, Del.). The results are expressed as the rate of accumulation of [^14C]-acetylated product relative to solvent controls (DMSO).
In order to determine whether TPA-induced CAT activity in JB6 P^+ cells is capable of being abolished, TPA induced CAT activity was measured in the presence of the known AP-1 inhibitors retinoic acid (RA) and fluocinolone acetonide (FA). In brief, JB6 P^+ Cl 41 cells were transfected with 10 μg of P750TRCAT and 10 μg of sheared genomic DNA from Cl 41 cells as in Example 1. 24-42 hours after transfection, cells were then exposed for 8 hours to either 0.1% DMSO, […] (TPA), 10^−7 M fluocinolone acetonide (FA) in the absence of 10 ng/ml TPA (FA7), 10^−9, 10^−8 and 10^−7 M FA in the presence of 10 ng/ml TPA (TFA9, TFA8, TFA7, respectively), 10^−5 M retinoic acid (RA) in the absence of 10 ng/ml TPA (RA5), or to 10^−7, 10^−6 and 10^−5 M RA in the presence of 10 ng/ml TPA (TRA7, TRA6, TRA5 respectively). Following the above treatments, total cell extracts were prepared and CAT enzyme activity was assayed as in Example 1. As before, the results are expressed as the rate of accumulation of ^14C-acetylated product relative to solvent controls.
In order to determine whether an overexpressed TAM67 protein could repress TPA-induced CAT activity in JB6 P^+ cells, eight TAM67 clonal transfectants (M1-M8) and three neo-only clonal transfectants (N1-N3) were transfected with 10 μg of P750TRCAT reporter plasmid using the standard calcium phosphate protocol described in. Example 1. Forty two hours after transfection with P750TRCAT, the cells were exposed to either 0.01% DMSO (closed bar, FIG. 5A), or 10 ng/ml TPA (crossed-hatched bar, FIG. 5A) or, to water (closed bar, FIG. 5B) or 10 ng/ml EGF (cross-hatched bar, FIG. 5B) for eight hours. Total cell extracts were then prepared from the treated cells and assayed for CAT activity as described in Example 1.

The test system of test [2] is JB6 P+ Cl 41 cells. Description: soft agar transformation assay, JB6 P+ Cl 41 cells. Particulars: 3 ng/ml TPA, 14 days in 0.33% agar, FA 10^−9-10^−7 M, RA 10^−9-10^−6 M. Here is the method:
(§1) In order to test whether the same concentration ranges of inhibitors shown in FIGS. 2A and 2B to repress TPA-induced AP-1 activity could also block TPA-induced transformation, a soft agar transformation assay was carried out on JB6 P^+ Cl 41 (cross-hatched bar) or JB6 P^+ Cl 41.5a (closed bar) cells exposed in 0.33% agar for 14 days to 0.01% DMSO alone, 3 ng/ml TPA alone (TPA), 10^−7 or 10^−8 M FA alone (FA7 and FA8, respectively), 10^−6 M RA alone (RA6) 3 ng/ml TPA in the presence of 10^−7-10^−9 M FA (TFA7, TFA8, TFA9) or to 3 ng/ml TPA in 10^−6-10^−9 M retinoic acid (TRA6, TRA7, TRA8, TRA9). Treated cells were scored for colonies after 14 days in agar and transformation response was expressed as the number of soft agar colonies/10^4 suspended cells. […] In agreement with an earlier observation by De Benedetti et al. ((1991) Cancer Res., 51:1158-1164), the sensitivity of Cl 41.5a cells to antipromotion by RA appeared to be greater than that observed with the Cl 41 cells. More importantly, the concentration-dependent range of FA effective in blocking TPA-induced transformation appeared identical to that range which was active in blocking TPA-induced CAT activity by FA (10^−9 M to 10^−7 M FA, see TFA7, TFA8 and TFA9 in FIG. 2A). […]

Test [3] has as its system JB6 P+ Cl 41.5a cells. Put plainly: soft agar transformation assay, JB6 P+ Cl 41.5a cells. To be noted: 3 ng/ml TPA, 14 days in 0.33% agar, FA 10^−9-10^−7 M, RA 10^−9-10^−6 M. Here is the method: as §1
The test system of test [4] is c-Jun. Put plainly: immunoprecipitation and densitometry of c-Jun protein in stable JB6 transfectants. Particulars: 10 ng/ml, fifteen hours, TAM67 or Neo-only transfectants. Here is the method: Three TAM67 clonal transfectants (M4, M3, M6) and one neo-only clonal transfectant (N1) were treated for fifteen hours with either 10 ng/ml TPA (T), 10 ng/ml EGF (E), or 0.1% DMSO (D) prior to metabolic labelling for two hours with 0.2 mCi/ml ^35S -methionine (Amersham, Rockford, Ill.) (Sun, Y. et al. (1993) Mol. Carcinogenesis, 8: 49-57). Cellular lysates were then collected and immunoprecipitations using polyclonal rabbit c-jun antibody (AB-1 antibody, Oncogene Science) were carried out overnite at 4° C. (Sun et al. (1993)). These immunoprecipitates were then analyzed by electrophoresis on 12.5% SDS polyacrylamide gels and these gels are shown in FIG. 4.

Here are results for three compounds from patent US6699842B1, “Dominant negative deletion mutants of C-jun and their use in the prevention and treatment of cancer” (The United States of America as represented by the …, priority 1994, dated 2004).

Take `CC1=C(/C=C/C(C)=C/C=C/C(C)=C/C(=O)O)C(C)(C)CCC1` [RA, retinoic acid]: in test [1] (10^−7-10^−5 M RA with 10 ng/ml TPA, P750TRCAT), the “inhibition of TPA-induced CAT activity” value is 90-100%.

On to `CC1(C)O[C@@H]2C[C@H]3[C@@H]4C[C@H](F)C5=CC(=O)C=C[C@]5(C)[C@@]4(F)[C@@H](O)C[C@]3(C)[C@]2(C(=O)CO)O1` [FA, Fluocinolone acetonide], for which the “TPA-induced transformation (soft agar colonies/10^4 suspended cells)” value in test [2] and in test [3] was “blocked TPA-induced transformation in a concentration-dependent manner” in each case. In test [1] (10^−9-10^−7 M FA with 10 ng/ml TPA, P750TRCAT), the “inhibition of TPA-induced CAT activity” value was “dose-dependent inhibition”.

In the case of `CCCCCCCCCCCCCC(=O)O[C@@H]1[C@@H](C)[C@@]2(O)[C@@H](C=C(CO)C[C@]3(O)C(=O)C(C)=C[C@@H]23)[C@@H]2C(C)(C)[C@]12OC(C)=O` [TPA, 12-O-tetradecanoyl phorbol 13-acetate], the “increase in AP-1 dependent CAT activity in neo-only transfectants” value in test [1] (10 ng/ml, eight hours, N1-N3 transfectants, P750TRCAT) is reported as 3 to 4.5 fold. For the same compound, in test [1] (10 ng/ml, eight hours, P750TRCAT-transfected JB6 P+ Cl 41 cells), the “CAT activity relative to uninduced cells, P750TRCAT reporter” value is listed as “about 2 fold”. The “CAT activity relative to uninduced cells, mPEA3-CAT reporter” value in test [1] (10 ng/ml, eight hours, mPEA3-CAT-transfected JB6 P+ Cl 41 cells (PEA3 sites mutated)) was “about 2 fold”. The “inducibility of CAT activity, mTRE-CAT reporter” value in test [1] (10 ng/ml, eight hours, mTRE-CAT-transfected cells (AP-1 binding site mutated)) is on record as “loss of inducibility”. The “c-Jun protein levels (43 kDa band, densitometric analysis)” value in test [4] was “no significant differences”.
